Data on two molecules can be found in patent publication US20110020272A1, “COMBINATION THERAPY FOR TREATING HEPATITIS VIRAL INFECTION” (priority 2009, published 2011).

Each structure is given as a SMILES string.

The test system of data set [1] is sub-genomic HCV Con 1 isolate in Luc-ubi-neo/ET Replicon cells. Kind of data set: HCV RNA replication in Luc-ubi-neo/ET Replicon cells, combined/sequential PI and IFN. The data set is classed as cell-based. The method, then: Replicon cells are in general Luc-ubi-neo/ET Replicon cells, which are derived from Huh7 cells and which harbor a sub-genomic HCV Con 1 isolate with a luciferase reporter gene. These so-called Replicon cells allow for in vitro screening of antiviral substances by autonomous HCV RNA replication.
After a 24 hour combined incubation, the medium was changed and cells were incubated for another 48 hours with PI alone. After these 3 days of incubation, HCV RNA replication was determined with respect to the non-treated control.
In general terms: In antiviral work, replicon cells carry a viral genome segment that copies itself.

The test system of data set [2] is Luc-ubi-neo/ET Replicon cells. Kind of data set: Cytotoxicity in Replicon cells. The data set is classed as cell-based, human. To be noted: 750 nM PI and 0.5 U/ml IFN.
Experimental: Luc-ubi-neo/ET-cells were seeded and incubated with PI and IFN (Roferon A, Roche) for 24 hours on the following day. […] After a 24 hour combined incubation, the medium was changed and cells were incubated for another 48 hours with PI alone. After these 3 days of incubation, HCV RNA replication was determined with respect to the non-treated control.
The next data set deals with HCV genotype 1. The conditions noted are these: highest dose group; viral load above 100,000 IU/mL; cited from earlier work.
Another data set deals with human cyclophilin A (Homo sapiens, UniProt P62937). The conditions noted are these: cited from earlier work.
The mark [3] stands for this setting: PI and IFN 24 h, subsequently PI alone 48 h, 750 nM PI and 0.5 U/ml IFN.

human cyclophilin A, sequence (P62937 whole entry): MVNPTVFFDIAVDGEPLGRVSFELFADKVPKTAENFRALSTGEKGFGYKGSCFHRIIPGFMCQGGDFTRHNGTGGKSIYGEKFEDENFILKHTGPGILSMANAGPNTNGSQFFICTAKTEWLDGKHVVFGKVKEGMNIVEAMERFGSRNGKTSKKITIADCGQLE

On to `O=C1CN(N=C[C@H](Cc2ccccc2)NC(=O)[C@H](Cc2c[nH]c3ccccc23)NC(=O)[C@H](Cc2c[nH]c3ccccc23)NC(=O)OCc2ccccc2)C(=O)N1` [S-2209, S,S,S-[1-[1-[1-Benzyl-2-(2,4-dioxo-imidazolidin-1-ylimino)-ethylcarbamoyl]-2-(1H-indol-3-yl)-ethylcarbamoyl]-2-(1H-indol-3-yl)-ethyl]-carbamic acid benzyl ester], for which, in data set [1] (setting [3]), the “basal replication (HCV RNA replication)” value is “approximately 10%” and the “inhibition of RNA replication” value amounted to 90%. For the same molecule, the “effect of combination of PI and IFN on HCV-bearing cells” value in data set [1] (combined or sequential treatment) was “synergistic effect”. Moreover, the “inhibition of HCV RNA replication” value in data set [1] (initial experiments, IFN 0.5 U/ml, PI 500-1000 nM) was “only a low inhibition”. In addition, the cytotoxicity entry in data set [2] is “no cytotoxicity is observed”.

On to `C/C=C/C[C@@H](C)[C@@H](O)[C@H]1C(=O)N[C@@H](CC)C(=O)N(C)[C@H](SCCN(C)C)C(=O)N(C)[C@@H](CC(C)(C)O)C(=O)N[C@@H](C(C)C)C(=O)N(C)[C@@H](CC(C)C)C(=O)N[C@@H](C)C(=O)N[C@H](C)C(=O)N(C)[C@@H](CC(C)C)C(=O)N(C)[C@@H](CC(C)C)C(=O)N(C)[C@@H](C(C)C)C(=O)N1C` [SCY-635], for which, in the data set with HCV genotype 1, the “mean nadir decrease in plasma HCV RNA” value is given as 2.20 log 10 IU/mL. Also, the “binding to human cyclophilin A” value on human cyclophilin A is “nanomolar concentrations”.
